Values quoted from earlier work in patent publication US20080213381A1, “Oral Drug Delivery System” (PHARMACEUTICAL INDUSTRIES LIMITED, priority 2005, published 2008).

[1] = oral, conventional immediate release dosage form of venlafaxine hydrochloride

time after oral administration at which plasma venlafaxine level is sub-therapeutic (conventional immediate release dosage form): around 12 hours | time at which peak plasma concentration of the active metabolite is achieved [1]: 4 h | time at which peak plasma concentration of venlafaxine is achieved [1]: 2 h
SMILES: COc1ccc(C(CN(C)C)C2(O)CCCCC2)cc1 (stereo not drawn) [venlafaxine]
